Measurements reported in US7247734B2 (Vernalis (Cambridge) Limited, priority 2001, dated 2007).

Key:
[1] = test system: HCT116 cells; test: Cellular protein by BCA assay after compound exposure (ELISA plates); type: cell-based, human; conditions: for Cellular Protein (% DMSO controls): HCT116, 10 μM compound
Procedure: Incubate at 37° for 30 min. • (6) Wash plates twice in PBS using an automated washer (Wellwash 5000 ten plate stacker-washer or Wellwash Ascent single plate washer, Thermo Labsystems, Basingstoke, UK). • (7) Block the plates by addition of blocking solution (100 μl) and incubate for 30 min. • (8) Add 100 μl primary antibody diluted to 0.95 μg/ml in PBS to each well and incubate plate for 1.5 h. Wash plates once with DELFIA® wash solution. • (9) Add 100 μl Europium labelled anti-mouse IgG diluted in DELFIA® assay buffer to 75 ng/ml and incubate for 1 hour. Wash plates once with DELFIA® wash solution as before. • (10) Add 100 μl DELFIA® enhancement solution to each well. • (11) Measure the fluorescence (615 nm) in Victor 2 1420 multilabel counter (Perkin Elmer Life Sciences, Milton Keynes, UK) using time-resolved measurement mode. • (12) Wash plates once with PBS and measure protein concentration by the addition of 200 μl BCA reagent to each well, shake for 1–2 min and incubate for 30 mins at 37° C. Read absorption at 570 nm. • (13) Express ELISA results by normalising to protein in the well (Eu counts (cpm) divided by OD@ 570 nm). Compare the effect of HSP90 inhibitors on HSP70 expression with DMSO treated controls. Comments • (1) Cells plated into 96 well plates are incubated in a plastic box to reduce evaporation from the outside wells. In addition, ELISA incubation steps are carried out in a 37° C. laboratory incubator and in a moist environment e.g., plastic box lined with damp tissue paper. • (2) All additions to the microtitre plate can be achieved using a multichannel pipette or for larger numbers of plates an automated dispenser such as a Multidrop (Thermo Labsytems, Basingstoke, UK). • (3) For convenience, if the effects of compounds are being studied at several time points the ELISA can be carried out in batches, plates being stored (in a container) at 4° C. following the fixation step. In this case the plates are washed only once following fixation and again immediately before the first ELISA step (step 6 above). In addition all the plates can be stored for subsequent protein estimation. • (4) Reproducibility of both the measured Europium counts and the protein measurements was between 10–15% (CV). • (5) DELFIA® reagents (see, e.g., Hemmila and Webb, 1997) have been routinely used in cell-based ELISAs. This endpoint provides high sensitivity and the time-resolved measurements reduce interference from non-specific fluorescence. However, it is also possible to use a horse radish peroxidase second antibody conjugate and either a calorimetric (e.g., tetramethylbenzidine) or chemiluminescent reagent (e.g., ECL reagent (Amersham Pharmacia Biotech, Little Chalfont, Bucks, UK) for endpoint measurement. • (6) It is recommended that a blank consisting of second-antibody only (i.e., no first antibody) together with an appropriate first antibody control (e.g., isotype matched IgG) are included in assays during the process of optimising reagent concentrations. Growth Inhibition Assay
The effect of various compounds of the present invention on the expression of the molecular marker HSP70 was determined using the cell-based ELISA and a specific monoclonal antibody to HSP70 in HCT116 cells, as described above. Cellular protein following compound exposure was determined using BCA assay as described in the method.

[2] = test system: HSP70 in HCT116 cells; test: Cell-based ELISA for HSP70 expression; design: species or system human; conditions: for % increase in HSP70 (Normalised Europium Counts compared to DMSO controls): HCT116, 10 μM compound
Excerpt: Cell-based ELISA methods (see, e.g., Stockwell et al., 1999; Versteeg et al., 2000) offer several advantages for evaluating the pharmacodynamic effects of novel mechanism-based inhibitors and may be the method of choice for comparing inhibitors that are identified during the iterative process of lead identification and optimisation. The technique can be used to rapidly rank the effectiveness of compounds as well as to investigate the molecular mechanisms of their action. The increased sample throughput possible with ELISA means that compounds can be simultaneously studied in multiple replicates at different doses and exposure times. […] The assays are carried out directly on cells grown and treated in microtitre plates, thereby removing the necessity for preparing cell lysates. ELISA techniques can in theory be applied to any cellular protein or post-translational modification for which an antibody is available and results are at least semi-quantitative.
Chemicals are of the highest purity commercially available. • (1) Human colon tumour cell lines (e.g., HCT116 and HT29 from American Tissue Culture Collection, ATCC) grown in Dulbecco's modified Eagle's medium (DMEM) (CSSD, Institute of Cancer Research, London, UK) supplemented with […] glucose, 10% foetal bovine serum (FBS), 200 mM L-glutamine, and 5 ml non-essential amino acids in a humidified atmosphere of 5% CO2 at 37° C. • (2) 96 well Falcon clear microtitre tissue culture plates (BD Labware, Hospital Management and Supplies, Ltd., Northampton, UK). • (3) DMSO diluted in dH2O (8%). • (4) HSP90 inhibitors at required concentration dissolved in DMSO. • (5) Fixing solution (0.25% glutaraldehyde, 3% paraformaldehyde and 0.25% Triton-X 100) (all from Sigma Aldrich Ltd, Poole, UK). • (6) Blocking solution (5% dried milk (Marvel) in PBS) prepared daily. • (7) Anti HSP70 monoclonal antibody (SPA 810, Bioquote, York, UK). • (8) DELFIA® wash buffer, enhancement solution, assay buffer and Europium labelled anti-mouse IgG (1244–1330) (PerkinElmer Life Sciences, Milton Keynes, UK). • (9) BCA protein assay reagents (Perbio Science UK Ltd., Chester, UK). Method
Incubate at 37° for 30 min. • (6) Wash plates twice in PBS using an automated washer (Wellwash 5000 ten plate stacker-washer or Wellwash Ascent single plate washer, Thermo Labsystems, Basingstoke, UK). • (7) Block the plates by addition of blocking solution (100 μl) and incubate for 30 min. • (8) Add 100 μl primary antibody diluted to 0.95 μg/ml in PBS to each well and incubate plate for 1.5 h. Wash plates once with DELFIA® wash solution. • (9) Add 100 μl Europium labelled anti-mouse IgG diluted in DELFIA® assay buffer to 75 ng/ml and incubate for 1 hour. Wash plates once with DELFIA® wash solution as before. • (10) Add 100 μl DELFIA® enhancement solution to each well. • (11) Measure the fluorescence (615 nm) in Victor 2 1420 multilabel counter (Perkin Elmer Life Sciences, Milton Keynes, UK) using time-resolved measurement mode. • (12) Wash plates once with PBS and measure protein concentration by the addition of 200 μl BCA reagent to each well, shake for 1–2 min and incubate for 30 mins at 37° C. Read absorption at 570 nm. • (13) Express ELISA results by normalising to protein in the well (Eu counts (cpm) divided by OD@ 570 nm). Compare the effect of HSP90 inhibitors on HSP70 expression with DMSO treated controls. Comments • (1) Cells plated into 96 well plates are incubated in a plastic box to reduce evaporation from the outside wells. […]

SMILES | Cellular Protein (% DMSO controls) ([1]; (48 h)) [%] | Cellular Protein (% DMSO controls) ([1]; (time not given)) [%] | % increase in HSP70 (Normalised Europium Counts compared to DMSO controls) ([2]; (48 h)) [%] | % increase in HSP70 (Normalised Europium Counts compared to DMSO controls) ([2]; (time not given)) [%] | cellular protein measured by BCA, reduction of DMSO controls ([1]; HCT116, 10 μM) | HSP70 induction ([2]; HCT116, 10 μM, 48 h)
Cc1[nH]nc(-c2ccc(O)cc2O)c1-c1ccc2c(c1)OCCO2 [CCT018157] | 91.3 | 21.2 | 103 | 105 | – | –
CCc1cc(-c2n[nH]c(C)c2-c2ccc3c(c2)OCCO3)c(O)cc1O [CCT018159, 4-[4-(2,3-Dihydro-benzo[1,4]dioxin-6-yl)-5-methyl-1H-pyrazol-3-yl]-6-ethyl-benzene-1,3-diol] | 50.0 | 20.8 | 278 | 158 | 50–80% | up to 2.8 fold
